Measurements from US10821152B2, “Methods, agents and compositions for treatment of inflammatory conditions” (Betanien Hospital, priority 2014, dated 2020).
Non-standard residues stand in square brackets, D forms with d. Residues, ends and D or L forms follow the SMILES beside them. *: point of attachment. dPhe(4-NHCONH2) = NC(=O)Nc1ccc(C[C@@H](N)C(=O)O)cc1; Dihydroorotyl(S) = O=C1C[C@@H](C(=O)*)NC(=O)N1; dPhe(4-Cl) = N[C@H](Cc1ccc(Cl)cc1)C(=O)O; Phe(4-NH2) = Nc1ccc(C[C@H](N)C(=O)O)cc1; d2Nal = N[C@H](Cc1ccc2ccccc2c1)C(=O)O; Lys(iPr) = CC(C)NCCCC[C@H](N)C(=O)O; d3Pal = N[C@H](Cc1cccnc1)C(=O)O

Columns and labels:
[1] = system: patient with multiple sclerosis; assay: Treatment of progressive multiple sclerosis with Degarelix, with concomitant Famprydine; format: in vivo, human; details: MS patient
Protocol: • person, diagnosed with multiple sclerosis (MS). Their MS was of the progressive type; characterized by a steady deterioration in function. • Fulfilled the 2010 McDonald Criteria for the diagnosis of MS 1. Experimental Treatment • So far results of clinical trials for progressive MS have generally been disappointing. Currently, there is no FDA approved treatment for progressive MS disease. • December 2014 received first dose of Degarelix 240 mg sc. • Received Degarelix 80 mg s.c every two weeks thereafter. Difficulties in Assessing Response in Progressive MS • Almost all trials in progressive MS show a worsening in function over time. The primary endpoint of these trials is usually to be able to show less worsening in the active treatment group compared to the placebo/other treatment group. Worsening is often defined as an increase in the Expanded Disability Status Scale (EDSS). EDSS is severely restrictive as an outcome measure for trials in progressive sclerosis.^2 Trials have not shown improvements in the EDSS or function in MS patients.^2 Optimal outcome measures in progressive MS are open to debate. • Effective imaging outcomes in clinical trials have allowed for the development of treatments for the relapsing-remitting type of MS. […] One of the most important factors in choosing outcome measures for these patients is the meaningfulness to patients. Assessment of Response at 6 Weeks
This was particularly evident in their ability to raise their feet onto a step, physiotherapy exercises, and dressing. In the past year, they previously had always required their spouse's help to climb a step at home, or to carry out certain lower limb exercises with their physiotherapist. By 4 weeks of GnRH antagonist treatment, they no longer required their spouse's help/physiotherapist's help to perform these activities. They climbed onto a step unaided at […] checkup. The improvement started at around 4 weeks after the initiation of therapy, and continued to improve further by 6 weeks. Expanded Disability Status Scale (EDSS): • This patient's EDSS has remained stable at 6.5, as expected over such a short time period of 6 weeks. A score of 6.5 is equivalent to only being able to walk with the aid of a walker, as in their case. This was evident at baseline and 6 weeks. Multiple Sclerosis Impact Scale 29 (MSIS-29): • Patient-reported outcomes are of increasing importance in trials of progressive multiple sclerosis.^2The most frequently used global patient-reported outcome in multiple sclerosis is the MSIS-29.^3 This has been correlated with clinical and imaging metrics specifically in progressive forms of the disease.^4 According to a recent review,^2 patient reported outcomes in trials of progressive multiple sclerosis can be used to validate MRI or clinical metrics, and increased use of patient-reported outcomes in trials of progressive multiple sclerosis will expected to help satisfy regulators' requirements that treatments show relevant benefit for patients. • At baseline, they scored 121 on the MSIS-29. By 6 weeks, their score was reduced to 110. A clinically significant minimal difference is a score change of 8. Therefore this reduction of 11 in their score is considered clinically significant.^5 Multiple Sclerosis Walking Scale-12 (MSWS-12) • The MSWS-12^6 was designed as a disease-specific patient-based instrument for use in clinical trials and clinical practice, to capture the complex impact of MS on walking ability. […] One of the most important attributes of the MSWS-12 in comparison to other assessments of walking in MS patients, is its responsiveness to change. […] By 6 weeks, their score was reduced to 53. This is a 12% improvement. A minimal clinically significant difference has not yet been established. […]

[2] = system: patient with systemic sclerosis; assay: Treatment of systemic sclerosis; format: in vivo, human; details: SSc patient
Description: • person, diagnosed with systemic sclerosis • Fulfilled the 2013 EULAR/ACR classification criteria for systemic sclerosisl. • Diagnosis based upon Raynauds phenomenon, positive ANA, high titre anti-Scl 70 antibodies, marked skin changes typical of scleroderma, and esophageal dysmotility. • Previously tried Cyclophosphamide and Mycophenolate Mofetil. • Progressive disease and worsening scleroderma skin features, despite therapy. • Rapid progressive cardiac disease, verified by biopsy.
Experimental Treatment • 5th December 2014 received first dose of Degarelix 240 mg sc. • 9th January 2015 received second dose of Degarelix 80 mg sc.
[…] They are important factors in patients' evaluations of quality of life2. Their precise objective evaluation can be included in randomized controlled trials3. Their pathogenesis is unclear. Histologically, there is a plug-like hyperkeratosis with parakeratosis, homogenized collagen fibers and perivascular mononuclear cell infiltration4.

Question: Which results are given for CC(=O)N[C@H](Cc1ccc2ccccc2c1)C(=O)N[C@H](Cc1ccc(Cl)cc1)C(=O)N[C@H](Cc1cccnc1)C(=O)N[C@@H](CO)C(=O)N[C@@H](Cc1ccc(NC(=O)[C@@H]2CC(=O)NC(=O)N2)cc1)C(=O)N[C@H](Cc1ccc(NC(N)=O)cc1)C(=O)N[C@@H](CC(C)C)C(=O)N[C@@H](CCCCNC(C)C)C(=O)N1CCC[C@H]1C(=O)N[C@H](C)C(N)=O [Degarelix] (Ac-[d2Nal][dPhe(4-Cl)][d3Pal]S[Phe(4-NH2)](Dihydroorotyl(S))[dPhe(4-NHCONH2)]L[Lys(iPr)]P[dA]-NH2)?
Answer: timed walk ([1]; 29 Apr. 2015, after discontinuing Famprydine on 5 Apr. 2015): 14.0 s; MFIS-5 ([1]; baseline): 20; MSIS-29 ([1]; baseline): 121; MSWS-12 ([1]; baseline): 60; Expanded Disability Status Scale (EDSS) ([1]; baseline and 6 weeks): 6.5; Timed 25 Foot Walk (T25FW) ([1]; baseline, stable Famprydine): 16.7 s; timed walk ([1]; by 2 months, with Famprydine): 14.0 s; timed walk ([1]; by 4 months, with Famprydine): 11.9 s; timed walk ([1]; by 5 months (30 Mar. 2015), with Famprydine): 11.8 s; MFIS-5 ([1]; by 6 weeks): 12; MFIS-5 reduction ([1]; by 6 weeks): 40%; MSIS-29 ([1]; by 6 weeks): 110; MSWS-12 ([1]; by 6 weeks): 53; MSWS-12 improvement ([1]; by 6 weeks): 12%; MSIS-29 score reduction ([1]; by 6 weeks, clinically significant minimal difference 8): 11; General function (patient reported) ([1]; from around 4 weeks to 6 weeks): a general improvement in their function; Digital tip ulcers/pitting scars ([2]; 5 weeks): 2; Modified Rodnan Skin Score ([2]; 5 weeks): 40; Sleep ([2]; 5 weeks): 5 hrs/night; VAS Fatigue ([2]; 5 weeks): 75; VAS Fingertip pain/pitting scars/ulcers ([2]; 5 weeks): 40; VAS Gastrointestinal Symptoms ([2]; 5 weeks): 80; VAS Global ([2]; 5 weeks): 40; VAS Lung/dyspnea ([2]; 5 weeks): 80; VAS Pain ([2]; 5 weeks): 10; VAS Raynauds/vascular ([2]; 5 weeks): 40; Digital tip ulcers/pitting scars ([2]; 6 weeks): 2; Modified Rodnan Skin Score ([2]; 6 weeks): 40; Sleep ([2]; 6 weeks): 5.5 hrs/night; VAS Fatigue ([2]; 6 weeks): 60; VAS Fingertip pain/pitting scars/ulcers ([2]; 6 weeks): 30; VAS Gastrointestinal Symptoms ([2]; 6 weeks): 60; VAS Global ([2]; 6 weeks): 40; VAS Lung/dyspnea ([2]; 6 weeks): 50; VAS Pain ([2]; 6 weeks): 10; VAS Raynauds/vascular ([2]; 6 weeks): 30; fingertip pain score (0-100 mm) ([2]; after 6 weeks of treatment (FIG. 12)): 30; Digital tip ulcers/pitting scars ([2]; baseline 5.12.14): 5; HAQ DI ([2]; baseline 5.12.14): 1.88; Modified Rodnan Skin Score ([2]; baseline 5.12.14): 42; Sleep ([2]; baseline 5.12.14): 2 hrs/night; VAS Fatigue ([2]; baseline 5.12.14): 100; VAS Fingertip pain/pitting scars/ulcers ([2]; baseline 5.12.14): 100; VAS Gastrointestinal Symptoms ([2]; baseline 5.12.14): 100; VAS Global ([2]; baseline 5.12.14): 100; VAS Lung/dyspnea ([2]; baseline 5.12.14): 100; VAS Pain ([2]; baseline 5.12.14): 100; VAS Raynauds/vascular ([2]; baseline 5.12.14): 100; fingertip pain score (0-100 mm) ([2]; baseline prior to treatment (FIG. 11)): 100 mm
